Test results: ChEMBL document CHEMBL5365497, “Developing Novel Coumarin-Containing Azoles Antifungal Agents by the Scaffold Merging Strategy for Treating Azole-Resistant Candidiasis” (J Med Chem, 2023)
≈ marks a conversion by molar mass, not a printed value.

Experiments:
Type in all cases: functional
Candida albicans [1] = experiment: Antifungal activity against Candida albicans CPCC400616 assessed as fungal growth inhibition by CLSI based microdilution method
Candida albicans [2] = experiment: Antifungal activity against Candida albicans SC5314 assessed as fungal growth inhibition by CLSI based microdilution method
Candida parapsilosis = experiment: Antifungal activity against Candida parapsilosis assessed as fungal growth inhibition by CLSI based microdilution method; conditions: Lodderomyces parapsilosis
Nakaseomyces glabratus = experiment: Antifungal activity against Candida glabrata assessed as fungal growth inhibition by CLSI based microdilution method
Pichia kudriavzevii = experiment: Antifungal activity against Pichia kudriavzevii assessed as fungal growth inhibition by CLSI based microdilution method
Candida tropicalis = experiment: Antifungal activity against Candida tropicalis assessed as fungal growth inhibition by CLSI based microdilution method
Cryptococcus neoformans = experiment: Antifungal activity against Cryptococcus neoformans assessed as fungal growth inhibition by CLSI based microdilution method
Candida albicans [3] = experiment: Antifungal activity against fluconazole-resistant Candida albicans CaR assessed as fungal growth inhibition by CLSI based microdilution method
Candida albicans [4] = experiment: Antifungal activity against fluconazole-resistant Candida albicans 17# assessed as fungal growth inhibition by CLSI based microdilution method
Candida albicans [5] = experiment: Antifungal activity against fluconazole-resistant Candida albicans 632 assessed as fungal growth inhibition by CLSI based microdilution method
Candida albicans [6] = experiment: Antifungal activity against fluconazole-resistant Candida albicans 904 assessed as fungal growth inhibition by CLSI based microdilution method
Candida albicans [7] = experiment: Antifungal activity against fluconazole-resistant Candida albicans 901 assessed as fungal growth inhibition by CLSI based microdilution method

Compound	MIC (Candida albicans [1]) [µg/mL]	MIC (Candida albicans [2]) [µg/mL]	MIC (Candida parapsilosis) [µg/mL]	MIC (Nakaseomyces glabratus) [µg/mL]	MIC (Pichia kudriavzevii) [µg/mL]	MIC (Candida tropicalis) [µg/mL]	MIC (Cryptococcus neoformans) [µg/mL]	MIC (Candida albicans [3]) [µg/mL]	MIC (Candida albicans [4]) [µg/mL]	MIC (Candida albicans [5]) [µg/mL]	MIC (Candida albicans [6]) [µg/mL]	MIC (Candida albicans [7]) [µg/mL]
O=c1ccc2cc(COC(Cn3cnnn3)c3ccc(F)cc3F)ccc2o1 (configuration not stated)	1 (≈ 2.6 µM)	2 (≈ 5.2 µM)	16 (≈ 41.6 µM)	16 (≈ 41.6 µM)	128 (≈ 333 µM)	0.5 (≈ 1.3 µM)	64 (≈ 167 µM)					
O=c1ccc2cc(COC(Cn3ccnc3)c3ccc(F)cc3F)ccc2o1 (configuration not stated)	0.5 (≈ 1.31 µM)	0.25 (≈ 0.654 µM)	2 (≈ 5.23 µM)	16 (≈ 41.8 µM)	8 (≈ 20.9 µM)	2 (≈ 5.23 µM)	32 (≈ 83.7 µM)	64 (≈ 167 µM)	4 (≈ 10.5 µM)	64 (≈ 167 µM)	32 (≈ 83.7 µM)	32 (≈ 83.7 µM)
O=c1ccc2cc(COC(Cn3cnnn3)c3ccc(Cl)cc3Cl)ccc2o1 (configuration not stated)	1 (≈ 2.4 µM)	2 (≈ 4.79 µM)	32 (≈ 76.7 µM)	16 (≈ 38.3 µM)	64 (≈ 153 µM)	32 (≈ 76.7 µM)	128 (≈ 307 µM)					
O=c1ccc2cc(COC(Cn3ccnc3)c3ccc(F)cc3)ccc2o1 (configuration not stated)	2 (≈ 5.49 µM)	0.5 (≈ 1.37 µM)	4 (≈ 11 µM)	32 (≈ 87.8 µM)	64 (≈ 176 µM)	8 (≈ 22 µM)	64 (≈ 176 µM)	128 (≈ 351 µM)	128 (≈ 351 µM)	64 (≈ 176 µM)	32 (≈ 87.8 µM)	64 (≈ 176 µM)
O=c1ccc2ccc(COC(Cn3ccnn3)c3ccc(F)cc3F)cc2o1 (configuration not stated)	> 128	> 128	> 128	128 (≈ 334 µM)	> 128	4 (≈ 10.4 µM)	> 128					
O=c1oc2c(Cl)cc(Cl)cc2cc1COC(Cn1ccnc1)c1ccc(Cl)cc1Cl (configuration not stated)	> 128	128 (≈ 264 µM)	> 128	> 128	> 128	> 128	16 (≈ 33 µM)					
O=c1ccc2cc(COC(Cn3ccnn3)c3ccc(Cl)cc3Cl)ccc2o1 (configuration not stated)	> 128	128 (≈ 307 µM)	64 (≈ 154 µM)	64 (≈ 154 µM)	128 (≈ 307 µM)	64 (≈ 154 µM)	128 (≈ 307 µM)					
O=c1oc2ccc([N+](=O)[O-])cc2cc1COC(Cn1ccnc1)c1ccc(Cl)cc1Cl (configuration not stated)	> 128	64 (≈ 139 µM)	> 128	128 (≈ 278 µM)	> 128	> 128	128 (≈ 278 µM)					
O=c1oc2ccccc2cc1COC(Cn1ccnc1)c1ccc(F)cc1F (configuration not stated)	0.06 (≈ 0.157 µM)	0.03 (≈ 0.0785 µM)	< 0.25	1 (≈ 2.62 µM)	0.5 (≈ 1.31 µM)	1 (≈ 2.62 µM)	0.06 (≈ 0.157 µM)	0.5 (≈ 1.31 µM)	2 (≈ 5.23 µM)	4 (≈ 10.5 µM)	2 (≈ 5.23 µM)	16 (≈ 41.8 µM)
OB1OCc2cc(F)ccc21 [TAVABOROLE]								16 (≈ 105 µM)	32 (≈ 211 µM)	16 (≈ 105 µM)	16 (≈ 105 µM)	32 (≈ 211 µM)
O=c1oc2ccccc2cc1COC(Cn1cncn1)c1ccc(F)cc1F (configuration not stated)	8 (≈ 20.9 µM)	0.25 (≈ 0.652 µM)	2 (≈ 5.22 µM)	8 (≈ 20.9 µM)	16 (≈ 41.7 µM)	64 (≈ 167 µM)	32 (≈ 83.5 µM)					
O=c1ccc2ccc(COC(Cn3cnnn3)c3ccc(F)cc3F)cc2o1 (configuration not stated)	> 128	> 128	128 (≈ 333 µM)	64 (≈ 167 µM)	32 (≈ 83.3 µM)	64 (≈ 167 µM)	8 (≈ 20.8 µM)					
COc1cccc2cc(COC(Cn3ccnc3)c3ccc(Cl)cc3Cl)c(=O)oc12 (configuration not stated)	0.25 (≈ 0.561 µM)	0.25 (≈ 0.561 µM)	0.5 (≈ 1.12 µM)	32 (≈ 71.9 µM)	32 (≈ 71.9 µM)	128 (≈ 287 µM)	0.5 (≈ 1.12 µM)					
O=c1oc2ccc(Cl)cc2cc1COC(Cn1ccnc1)c1ccc(Cl)cc1Cl (configuration not stated)	16 (≈ 35.6 µM)	0.25 (≈ 0.556 µM)	16 (≈ 35.6 µM)	128 (≈ 285 µM)	128 (≈ 285 µM)	128 (≈ 285 µM)	16 (≈ 35.6 µM)					
COc1cccc2cc(COC(Cn3ccnc3)c3ccc(F)cc3F)c(=O)oc12 (configuration not stated)	0.25 (≈ 0.606 µM)	0.25 (≈ 0.606 µM)	0.06 (≈ 0.145 µM)	4 (≈ 9.7 µM)	2 (≈ 4.85 µM)	32 (≈ 77.6 µM)	0.06 (≈ 0.145 µM)					
O=c1oc2ccc(F)cc2cc1COC(Cn1ccnc1)c1ccc(Cl)cc1Cl (configuration not stated)	0.5 (≈ 1.15 µM)	0.25 (≈ 0.577 µM)	0.5 (≈ 1.15 µM)	2 (≈ 4.62 µM)	2 (≈ 4.62 µM)	64 (≈ 148 µM)	0.5 (≈ 1.15 µM)					
CCC(C)n1ncn(-c2ccc(N3CCN(c4ccc(OCC5COC(Cn6cncn6)(c6ccc(Cl)cc6Cl)O5)cc4)CC3)cc2)c1=O (configuration not stated) [ITRACONAZOLE]								64 (≈ 90.7 µM)	128 (≈ 181 µM)	64 (≈ 90.7 µM)	> 128	> 128

Compound	MIC (Candida albicans [1]) [µg/mL]	MIC (Candida albicans [2]) [µg/mL]	MIC (Candida parapsilosis) [µg/mL]	MIC (Nakaseomyces glabratus) [µg/mL]	MIC (Pichia kudriavzevii) [µg/mL]	MIC (Candida tropicalis) [µg/mL]	MIC (Cryptococcus neoformans) [µg/mL]	MIC (Candida albicans [3]) [µg/mL]	MIC (Candida albicans [4]) [µg/mL]	MIC (Candida albicans [5]) [µg/mL]	MIC (Candida albicans [6]) [µg/mL]	MIC (Candida albicans [7]) [µg/mL]
O=c1ccc2cc(COC(Cn3ccnn3)c3ccc(F)cc3F)ccc2o1 (configuration not stated)	> 128	> 128	128 (≈ 334 µM)	> 128	> 128	> 128	> 128					
O=c1ccc2cc(COC(Cn3cncn3)c3ccc(Cl)cc3Cl)ccc2o1 (configuration not stated)	4 (≈ 9.61 µM)	0.25 (≈ 0.601 µM)	2 (≈ 4.8 µM)	32 (≈ 76.9 µM)	16 (≈ 38.4 µM)	32 (≈ 76.9 µM)	32 (≈ 76.9 µM)					
O=c1oc2ccccc2cc1COC(Cn1ccnn1)c1ccc(Cl)cc1Cl (configuration not stated)	128 (≈ 307 µM)	128 (≈ 307 µM)	> 128	> 128	128 (≈ 307 µM)	> 128	32 (≈ 76.9 µM)					
O=c1ccc2ccc(COC(Cn3ccnc3)c3ccc(F)cc3F)cc2o1 (configuration not stated)	4 (≈ 10.5 µM)	0.25 (≈ 0.654 µM)	16 (≈ 41.8 µM)	64 (≈ 167 µM)	64 (≈ 167 µM)	8 (≈ 20.9 µM)	64 (≈ 167 µM)	128 (≈ 335 µM)	128 (≈ 335 µM)	32 (≈ 83.7 µM)	32 (≈ 83.7 µM)	64 (≈ 167 µM)
O=c1ccc2cc(COC(Cn3cncn3)c3ccc(F)cc3F)ccc2o1 (configuration not stated)	8 (≈ 20.9 µM)	0.25 (≈ 0.652 µM)	4 (≈ 10.4 µM)	16 (≈ 41.7 µM)	32 (≈ 83.5 µM)	64 (≈ 167 µM)	64 (≈ 167 µM)					
O=c1oc2ccccc2cc1COC(Cn1ccnn1)c1ccc(F)cc1F (configuration not stated)	> 128	128 (≈ 334 µM)	> 128	> 128	64 (≈ 167 µM)	> 128	64 (≈ 167 µM)					
O=c1ccc2ccc(COC(Cn3ccnc3)c3ccc(F)cc3)cc2o1 (configuration not stated)	2 (≈ 5.49 µM)	0.5 (≈ 1.37 µM)	16 (≈ 43.9 µM)	64 (≈ 176 µM)	32 (≈ 87.8 µM)	4 (≈ 11 µM)	4 (≈ 11 µM)	128 (≈ 351 µM)	128 (≈ 351 µM)	32 (≈ 87.8 µM)	32 (≈ 87.8 µM)	64 (≈ 176 µM)
O=c1oc2ccc(F)cc2cc1COC(Cn1ccnc1)c1ccc(F)cc1F (configuration not stated)	1 (≈ 2.5 µM)	1 (≈ 2.5 µM)	0.5 (≈ 1.25 µM)	2 (≈ 5 µM)	4 (≈ 9.99 µM)	8 (≈ 20 µM)	0.5 (≈ 1.25 µM)					
O=c1oc2ccc([N+](=O)[O-])cc2cc1COC(Cn1ccnc1)c1ccc(F)cc1F (configuration not stated)	> 128	> 128	64 (≈ 150 µM)	32 (≈ 74.9 µM)	128 (≈ 300 µM)	128 (≈ 300 µM)	64 (≈ 150 µM)					
O=c1oc2ccccc2cc1COC(Cn1cncn1)c1ccc(Cl)cc1Cl (configuration not stated)	4 (≈ 9.61 µM)	0.25 (≈ 0.601 µM)	4 (≈ 9.61 µM)	8 (≈ 19.2 µM)	32 (≈ 76.9 µM)	16 (≈ 38.4 µM)	16 (≈ 38.4 µM)					
O=c1oc2ccccc2cc1COC(Cn1ccnc1)c1ccc(F)cc1 (configuration not stated)	0.06 (≈ 0.165 µM)	0.03 (≈ 0.0823 µM)	< 0.25	1 (≈ 2.74 µM)	1 (≈ 2.74 µM)	0.5 (≈ 1.37 µM)	0.125 (≈ 0.343 µM)	0.5 (≈ 1.37 µM)	2 (≈ 5.49 µM)	8 (≈ 22 µM)	4 (≈ 11 µM)	8 (≈ 22 µM)
O=c1ccc2ccc(COC(Cn3cnnn3)c3ccc(Cl)cc3Cl)cc2o1 (configuration not stated)	> 128	> 128	64 (≈ 153 µM)	64 (≈ 153 µM)	> 128	128 (≈ 307 µM)	32 (≈ 76.7 µM)					
C[C@@H](c1ncncc1F)[C@](O)(Cn1cncn1)c1ccc(F)cc1F [VORICONAZOLE]								> 128	128 (≈ 366 µM)	64 (≈ 183 µM)	> 128	> 128
O=c1oc2ccc(Cl)cc2cc1COC(Cn1ccnc1)c1ccc(F)cc1F (configuration not stated)	32 (≈ 76.8 µM)	0.25 (≈ 0.6 µM)	16 (≈ 38.4 µM)	128 (≈ 307 µM)	128 (≈ 307 µM)	128 (≈ 307 µM)	16 (≈ 38.4 µM)					
O=c1oc2c(Cl)cc(Cl)cc2cc1COC(Cn1ccnc1)c1ccc(F)cc1 (configuration not stated)	> 128	> 128	> 128	> 128	> 128	> 128	128 (≈ 295 µM)					
O=c1ccc2ccccc2o1 [COUMARIN]	> 128	> 128	> 128	> 128	> 128	> 128	> 128	> 128	128 (≈ 876 µM)	> 128	> 128	> 128
O=c1oc2c(Cl)cc(Cl)cc2cc1COC(Cn1ccnc1)c1ccc(F)cc1F (configuration not stated)	> 128	> 128	> 128	> 128	> 128	> 128	64 (≈ 142 µM)					
